Laboratory results published in patent publication EP4644396A1 (Visionpharma (Nantong) Co., Ltd, priority 2022, dated 2024).
Where two headings read alike, the source gives them in different places.

How the values were obtained:
human TLR7 = molecular target: T1, human TLR7 (Homo sapiens, UniProt Q9NYK1); assay: HEK-Blue hTLR7 SEAP reporter gene inhibition assay; assay type: cell-based
T1 sequence (Q9NYK1 27-1049): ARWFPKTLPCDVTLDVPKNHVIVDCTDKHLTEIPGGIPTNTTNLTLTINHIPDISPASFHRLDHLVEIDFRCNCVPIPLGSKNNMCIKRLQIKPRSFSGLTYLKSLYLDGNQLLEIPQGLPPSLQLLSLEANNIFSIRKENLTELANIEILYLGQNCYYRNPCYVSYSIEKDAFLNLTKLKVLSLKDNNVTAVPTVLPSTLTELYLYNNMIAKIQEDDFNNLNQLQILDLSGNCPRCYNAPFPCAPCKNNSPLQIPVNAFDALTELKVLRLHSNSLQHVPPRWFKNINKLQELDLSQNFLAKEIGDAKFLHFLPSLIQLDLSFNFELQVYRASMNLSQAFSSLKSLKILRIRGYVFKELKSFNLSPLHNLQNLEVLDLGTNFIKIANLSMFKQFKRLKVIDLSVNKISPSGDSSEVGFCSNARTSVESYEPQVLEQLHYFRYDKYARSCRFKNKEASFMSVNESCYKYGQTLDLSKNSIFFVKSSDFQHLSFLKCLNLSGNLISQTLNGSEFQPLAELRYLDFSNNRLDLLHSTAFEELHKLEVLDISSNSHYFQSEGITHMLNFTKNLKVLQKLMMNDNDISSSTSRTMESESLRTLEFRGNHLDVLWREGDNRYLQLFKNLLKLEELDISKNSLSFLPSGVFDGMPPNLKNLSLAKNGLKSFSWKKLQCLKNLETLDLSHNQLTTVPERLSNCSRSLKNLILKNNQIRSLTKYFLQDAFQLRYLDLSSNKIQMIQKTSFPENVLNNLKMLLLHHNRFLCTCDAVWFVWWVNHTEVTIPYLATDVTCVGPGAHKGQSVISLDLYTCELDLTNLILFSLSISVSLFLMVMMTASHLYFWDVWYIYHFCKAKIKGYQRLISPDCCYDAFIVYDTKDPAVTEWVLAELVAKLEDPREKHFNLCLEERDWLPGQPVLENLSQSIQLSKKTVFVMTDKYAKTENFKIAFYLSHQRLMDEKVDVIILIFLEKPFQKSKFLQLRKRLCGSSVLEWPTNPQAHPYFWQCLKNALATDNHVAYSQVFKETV
Method: HEK-Blue cells with stable expression of human TLR7 or TLR8 were used in the evaluation of inhibitory activity of compounds in the present invention against TLR7 or TLR8, by using its ability to induce the SEAP reporting gene under the control of the fusion of IFN-β minimum promoters into five NF-κB and ap-1 binding sites, as follows: hTLR7 HEK-Blue cells (Invivogen, 80, 000 cells per well) or hTLR8 HEK-Blue cells (60, 000 cells per well) were added to a 96-well cell culture plate. A solution of the testing compounds were added to each well, with the final concentration of tested compounds in the medium ranged from 0.001 to 36 µM and the culture was incubated for 15 minutes. M5049 was used as positive controls in the testing.
Then a TLR7 ligand (Gardiquimod, purchased from MedChemExpress, with final concentration of ligand in cell culture medium kept at 10 µM) or a TLR8 ligand (purchased from MedChemExpress with final concentration in cell culture media at 10 µM) and the culture was incubated for 20 hours. According to the manufacturer's instructions, a HEK-Blue reagent Quanti-blue (Invivogen) was used to detect the SEAP levels in cell cultures. The half […] concentration or IC50 was calculated by using GraphPad Prism. […] Table 1: Activities of examples in this invention to hTLR7/8 in HEK-Blue Cells

human TLR8 = molecular target: T2, human TLR8 (Homo sapiens, UniProt Q9NR97); assay: HEK-Blue hTLR8 SEAP reporter gene inhibition assay; assay type: cell-based
T2 construct: expressed in transfected cells
T2 sequence (Q9NR97 27-1041): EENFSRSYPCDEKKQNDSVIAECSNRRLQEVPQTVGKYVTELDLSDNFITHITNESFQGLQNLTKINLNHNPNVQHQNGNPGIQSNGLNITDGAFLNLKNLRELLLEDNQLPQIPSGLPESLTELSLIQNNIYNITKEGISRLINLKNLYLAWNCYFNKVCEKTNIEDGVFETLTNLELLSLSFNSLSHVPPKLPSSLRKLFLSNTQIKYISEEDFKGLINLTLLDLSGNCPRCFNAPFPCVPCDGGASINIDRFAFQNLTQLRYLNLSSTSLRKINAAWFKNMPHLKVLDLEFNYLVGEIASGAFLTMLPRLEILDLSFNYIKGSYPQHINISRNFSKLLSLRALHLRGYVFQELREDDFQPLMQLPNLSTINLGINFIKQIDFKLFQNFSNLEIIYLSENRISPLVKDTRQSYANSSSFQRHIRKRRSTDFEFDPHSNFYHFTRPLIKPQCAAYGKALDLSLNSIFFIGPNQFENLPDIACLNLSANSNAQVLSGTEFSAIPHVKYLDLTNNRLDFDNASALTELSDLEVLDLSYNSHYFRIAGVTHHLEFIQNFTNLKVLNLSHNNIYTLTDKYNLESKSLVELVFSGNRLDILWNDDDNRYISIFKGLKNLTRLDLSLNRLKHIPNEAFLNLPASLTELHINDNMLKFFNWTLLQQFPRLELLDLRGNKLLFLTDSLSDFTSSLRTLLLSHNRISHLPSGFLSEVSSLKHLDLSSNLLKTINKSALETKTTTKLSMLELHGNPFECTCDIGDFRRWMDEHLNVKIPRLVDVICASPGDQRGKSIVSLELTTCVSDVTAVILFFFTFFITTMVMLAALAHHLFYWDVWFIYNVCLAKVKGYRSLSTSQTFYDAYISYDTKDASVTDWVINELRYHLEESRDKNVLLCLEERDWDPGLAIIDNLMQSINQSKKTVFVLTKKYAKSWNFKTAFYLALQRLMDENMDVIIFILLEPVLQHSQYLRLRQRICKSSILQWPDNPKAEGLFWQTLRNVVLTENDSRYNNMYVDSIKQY
Procedure, shortened: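 SEAP read-out by Quanti-Blue after 20 h stimulation gave IC50 values. Stable hTLR7 or hTLR8 HEK-Blue cells were pretreated 15 min with compound at 0.001–36 µM final, then stimulated with 10 µM Gardiquimod (TLR7) or 10 µM TLR8 ligand.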

[1] = hTLR7 HEK-Blue cells, TLR7 ligand Gardiquimod 10 µM, 20 hours, SEAP by Quanti-blue, class symbols, read-out: HEK-Blue hTLR7 IC50
[2] = hTLR8 HEK-Blue cells, TLR8 ligand 10 µM, 20 hours, SEAP by Quanti-blue, class symbols, read-out: HEK-Blue hTLR8 IC50

IC50 (human TLR7; [1]) [µM] | IC50 (human TLR8; [2]) [µM] | Structure (SMILES) | IC50 (human TLR7; HEK-Blue hTLR7 IC50 (µM)) [µM] | IC50 (human TLR8; HEK-Blue hTLR8 IC50 (µM)) [µM]
> 0.05 | < 0.1 | C[C@@H]1CN(c2ccc(C#N)n3ncc(F)c23)Cc2c3c(nn21)CNCC3CO (stereo partly drawn) [Example I-40, 3-Fluoro-4-((4R)-10-(hydroxymethyl)-4-methyl-3,4,7,8,9,10-hexahydropyrido [3',4':3,4]pyrazolo[1,5-a]pyrazin-2(1H)-yl)pyrazolo[1,5-a]pyridine-7-carbonitrile] |  | 
< 0.05 | < 0.1 | C[C@@H]1CN(c2ccc(C#N)n3ncc(F)c23)Cc2c3c(nn21)C(C)(C)NCC3 [Example I-45, (R)-3-Fluoro-4-(4,7,7-trimethyl-3,4,7,8,9,10-hexahydropyrido[3',4':3,4]pyrazolo[1,5-a]pyrazin-2(1H)-yl)pyrazolo[1,5-a]pyridine-7-carbonitrile] |  | 
< 0.05 | > 0.1 | C[C@@H]1Cc2c(nn3c2CN(c2ccc(C#N)n4ncc(F)c24)C[C@H]3C)[C@H](C)N1 [Example I-59, 3-Fluoro-4-((4R,7S,9R)-4,7,9-trimethyl-3,4,7,8,9,10-hexahydropyrido[3',4':3,4]pyrazolo[1,5-a]pyrazin-2(1H)-yl)pyrazolo[1,5-a]pyridine-7-carbonitrile] |  | 
< 0.05 | > 0.1 | CC(C)C1Cc2c(nn3c2CN(c2ccc(C#N)n4ncc(F)c24)C[C@H]3C)CN1 (stereo partly drawn) [Example I-60, 3-Fluoro-4-((4R)-9-isopropyl-4-methyl-3,4,7,8,9,10-hexahydropyrido[3',4':3,4]pyrazolo[1,5-a]pyrazin-2(1H)-yl)pyrazolo[1,5-a]pyridine-7-carbonitrile] |  | 
> 0.05 | < 0.1 | C[C@@H]1CN(c2ccc(C#N)n3ncc(F)c23)Cc2c3c(nn21)CNC(c1ccn[nH]1)C3 (stereo partly drawn) [Example I-68, 3-Fluoro-4-((4R)-4-methyl-9-(1H-pyrazol-5-yl)-3,4,7,8,9,10-hexahydropyrido[3',4':3,4]pyrazolo[1,5-a]pyrazin-2(1H)-yl)pyrazolo[1,5-a]pyridine-7-carbonitrile] |  | 

Second part, the compound before the results:

Structure (SMILES) | IC50 (human TLR7; [1]) [µM] | IC50 (human TLR8; [2]) [µM] | IC50 (human TLR7; HEK-Blue hTLR7 IC50 (µM)) [µM] | IC50 (human TLR8; HEK-Blue hTLR8 IC50 (µM)) [µM]
C[C@@H]1CN(c2ccc(C#N)n3ncc(F)c23)Cc2c3c(nn21)CN(Cc1cn[nH]c1)CC3 [Example I-28, (R)-4-(8-((1H-pyrazol-4-yl)methyl)-4-methyl-3,4,7,8,9,10-hexahydropyrido[3',4':3,4]pyrazolo[1,5-a]pyrazin-2(1H)-yl)-3-fluoropyrazolo[1,5-a]pyridine-7-carbonitrile] | > 0.05 | < 0.1 |  | 
CC1Cc2c(nn3c2CN(c2ccc(C#N)n4ncc(F)c24)C[C@H]3C)CN1 (stereo partly drawn) [Example I-30, 4-((4R)-4,9-dimethyl-3,4,7,8,9,10-hexahydropyrido[3',4':3,4]pyrazolo[1,5-a]pyrazin-2(1H)-yl)-3-fluoropyrazolo[1,5-a]pyridine-7-carbonitrile] | < 0.05 | < 0.1 |  | 
C[C@@H]1CN(c2ccc(C#N)n3ncc(F)c23)Cc2c3c(nn21)CN[C@@H](C)C3 [Example I-30a] | < 0.05 | < 0.1 |  | 
C[C@@H]1Cc2c(nn3c2CN(c2ccc(C#N)n4ncc(F)c24)C[C@H]3C)CN1 [Example I-30b] | < 0.05 | < 0.1 |  | 
C[C@@H]1CN(c2ccc(C#N)n3ncc(F)c23)Cc2c3c(nn21)C(CO)NCC3 (stereo partly drawn) [Example I-33, 3-Fluoro-4-((4R)-7-(hydroxymethyl)-4-methyl-3,4,7,8,9,10-hexahydropyrido[3',4':3,4]pyrazolo[1,5-a]pyrazin-2(1H)-yl)pyrazolo[1,5-a]pyridine-7-carbonitrile] | > 0.05 | < 0.1 |  | 
C[C@@H]1CN(c2ccc(C#N)n3ncc(F)c23)Cc2c3c(nn21)CC(N1CCC(O)C1)CC3 (stereo partly drawn) [Example I-34, 3-Fluoro-4-((4R)-8-(3-hydroxypyrrolidin-1-yl)-4-methyl-3,4,7,8,9,10-hexahydropyrazino[1,2-b]indazol-2(1H)-yl)pyrazolo[1,5-a]pyridine-7-carbonitrile] | < 0.05 | < 0.1 |  | 
C[C@@H]1NCCc2c1nn1c2CN(c2ccc(C#N)n3ncc(F)c23)C[C@H]1C [Example I-39, 4-((4R,7S)-4,7-dimethyl-3,4,7,8,9,10-hexahydropyrido[3',4':3,4]pyrazolo[1,5-a]pyrazin-2(1H)-yl)-3-fluoropyrazolo[1,5-a]pyridine-7-carbonitrile] | < 0.05 | < 0.1 |  | 
C[C@@H]1CN(c2ccc(C#N)n3ncc(F)c23)Cc2c3c(nn21)CN[C@H](CO)C3 [Example I-43, 3-fFuoro-4-((4R,9S)-9-(hydroxymethyl)-4-methyl-3,4,7,8,9,10-hexahydropyrido [3',4':3,4]pyrazolo[1,5-a]pyrazin-2(1H)-yl)pyrazolo[1,5-a]pyridine-7-carbonitrile] |  |  | < 0.05 | < 0.1
C[C@@H]1CN(c2ccc(C#N)n3ncc(F)c23)Cc2c3c(nn21)C1CCC(C3)N1 (stereo partly drawn) [Example I-52, 3-Fluoro-4-((4R)-4-methyl-1,3,4,7,8,9,10,11-octahydro-2H-7,10-epiminocyclohepta [3,4]pyrazolo[1,5-a]pyrazin-2-yl)pyrazolo[1,5-a]pyridine-7-carbonitrile] | < 0.05 | < 0.1 |  | 
C[C@@H]1CN(c2ccc(C#N)n3ncc(F)c23)Cc2c3c(nn21)CNC(CCOC(C)(C)C)C3 (stereo partly drawn) [Example I-61, 4-((4R)-9-(2-(tert-butoxy)ethyl)-4-methyl-3,4,7,8,9,10-hexahydropyridine[3',4':3,4]pyrazole[1,5-a]pyrazine-2(1H)-yl)-3-fluoropyrazole[1,5-a]pyridine-7-caronitrile] |  |  | < 0.05 | > 0.1
